Experimental data reported in PubChem BioAssay AID2305 (GlaxoSmithKline (GSK), 2010).
Several values for one entry are separate records, joined by “and”; a condition that tells them apart may be missing. Equal values may be shown once.

Test system: P. falciparum 3D7 growth, pLDH absorbance
Experiment: blood-stage malaria parasite growth potency – strain 3D7, dose response (AID 2305)

| SMILES | IC50 |
| --- | --- |
| CC(C)(C)c1cc(C(=O)N2CCC(c3ccccn3)CC2)n(Cc2ccccc2)n1 | 960 nM |
| O=C(/C=C/c1ccc(I)cc1)NCCCCCN1CCC(c2c[nH]c3ccccc23)CC1 | 840 nM |
| O=C(Nc1cccc(-c2cccc(-c3nc4ccccc4[nH]3)c2)c1)c1cccnc1 | 650 nM |
| O=C(NC1CCN(c2ccnc3cc(Cl)ccc23)C1)c1ccccc1F (configuration not stated) | 970 nM |
| CCc1ccc(-c2nc3cc(NC(=O)c4cc([N+](=O)[O-])cc([N+](=O)[O-])c4)ccc3o2)cc1 | 930 nM |
| O=C(NCCCCN1CCN(c2cccc3ccccc23)CC1)c1ccc(NC(=O)c2ccc(Cl)cc2)cc1 | 360 nM |
| CC1CCCCN1Cc1cccc(-c2c[nH]c3nc(NC4CCCC4)ncc23)c1 (configuration not stated) | 1310 nM |
| CC1(CCCCN2CCC(Oc3ccc(F)cc3F)CC2)C(=O)Nc2ccccc21 (configuration not stated) | 760 nM |
| Cc1c(C(=O)Nc2cc(Sc3ccc(F)cc3)cc([N+](=O)[O-])c2)sc2ncn(Cc3ccccc3F)c(=O)c12 | 800 nM |
| COc1cc2ncnc(Nc3ccc(OCc4ccccc4)c(OCc4ccccc4)c3)c2cc1OC | 740 nM |
| O=C(/C=C/c1ccc(Cl)c(Cl)c1)NCCCCCN1CC[C@H](NC(=O)c2sc3ccccc3c2Cl)C1 | 810 nM |
| O=C(Nc1ccc(C(F)(F)F)cc1)NC1CCN(CCCCCNC(=O)[C@@H]2C[C@H]2c2ccc(Cl)c(Cl)c2)CC1 | 630 nM |
| c1cc(-c2ccc(CNCCCn3ccnc3)cc2)cc(-c2nc3ccccc3[nH]2)c1 | 110 nM |
| COc1ccc(Cn2c(Nc3cccc(C(F)(F)F)c3)nc3cc(C(=O)NCCN4CCCC4)ccc32)cc1Cl | 830 nM |
| Cc1onc(-c2c(Cl)cccc2Cl)c1C(=O)N1CCc2cc3nccc(N4CCN5CCC[C@H]5C4)c3cc21 | 770 nM |
| CCOC(=O)N1CCN(CCCCNc2c3ccc(Cl)cc3nc3ccc(OC)cc23)CC1 | 120 nM |
| Clc1cc(Cl)c2cc(CNCCCNc3ccc4ccccc4n3)[nH]c2c1 | 340 nM |
| c1ccc2[nH]c(-c3ccc(-c4ccc(CNCCc5ccncc5)cc4)s3)nc2c1 | 160 nM |
| CC(C)Cn1c(Sc2ccc(C#N)c([N+](=O)[O-])c2)nnc1-c1ccc(N(C)C)cc1 | 220 nM |
| CCCCCCNCc1c(O)ccc2c(CNCCCCCC)c(O)ccc12 | 130 nM |
| Cc1ccccc1CN1CCCN(Cc2ccc(C(=O)Nc3ccc(Cl)cc3)cc2)CC1 | 940 nM |
| Cc1cc(CN2CCC(N3CC(c4ccccc4)(c4ccccc4)OCC3=O)C2)ccc1O (configuration not stated) | 1080 nM |
| CS(=O)(=O)Cc1ccc(Nc2nccc(-c3c(-c4cccc(C(=O)Nc5c(F)cccc5F)c4)nn4ccccc34)n2)cc1 | 530 nM |
| COc1ccc2nc(C)cc(Nc3ccc(N4CCN(C)CC4)cc3)c2c1 | 790 nM |
| CC(C)Cn1ncc2c3c(N)nc(N)nc3ccc21 | 160 nM |

| SMILES | IC50 |
| --- | --- |
| COc1ccc(CN2CCN(CCOC(c3ccc(F)cc3)c3ccc(F)cc3)CC2)c(O)c1 | 730 nM |
| Cc1cccc(CNc2nc(C)cc(N[C@@H](Cc3ccccc3)C(=O)NC3CCCC3)n2)c1 | 650 nM |
| O=C(NC1CCC(CN2CCC(c3c[nH]c4ccccc34)CC2)CC1)c1[nH]c(=O)[nH]c(=O)c1F (configuration not stated) | 800 nM |
| CCCCc1cc(NCc2ccncc2)nc(Nc2ccc(OC)cc2)n1 | 1060 nM |
| C=C[C@]1(C)C[C@@H](OC(=O)NC(=O)CCCS(=O)(=O)c2nnc(C)s2)[C@]2(C)[C@H](C)CC[C@]3(CCC(=O)[C@H]32)[C@@H](C)[C@@H]1O | 30 nM |
| CCOC(=O)c1ccc(NC(=O)Nc2ccc(-c3cccc(-c4nc5ccccc5[nH]4)c3)cc2)cc1 | 140 nM |
| COc1cc(Cc2cnc(N)nc2N)c2ccsc2c1OC | 1070 nM |
| CN(C(=O)c1cc2c(-c3cncnc3)cccc2[nH]1)c1ccccc1 | 630 nM |
| Cc1ccc(/C=C/C(=O)NC2CCC(CN3CCC(c4c[nH]c5ccccc45)CC3)CC2)cc1C (configuration not stated) | 820 nM and 830 nM |
| O=C(Nc1ccc(Cl)cc1)Nc1cccc(-c2cc(CNCCc3ccccc3)oc2-c2ccncc2)c1 | 280 nM |
| COc1ccc(NC(=O)Nc2ccc(-c3ccccc3)cc2)cc1Cn1nc(Cl)c(N2CCCNCC2)cc1=O | 360 nM |
| CCC(C)NC(=O)CN1CN(c2ccccc2)C2(CCN(C(=O)c3ccc(-c4ccccc4)cc3)CC2)C1=O (configuration not stated) | 130 nM |
| COc1ccc2nccc(NN=Cc3ccc(Cl)cc3)c2c1 | 210 nM |
| COc1ccc(-c2ccc(NC(=O)c3ccc(C#N)cc3)cc2)cc1CN1CCCC1 | 870 nM |
| FC(F)(F)COc1ccc2ccccc2c1CCNCCCCNCCc1c(OCC(F)(F)F)ccc2ccccc12 | 430 nM |
| O=C(CNc1ccc(Cl)c(S(=O)(=O)N2CCCC2)c1)Nc1ccc(Br)cc1F | 320 nM |
| CN(c1ccc(NC(=O)Nc2cc(C(F)(F)F)ccc2F)cc1)c1ccnc(NCCN2CCOCC2)n1 | 510 nM |
| O=C(C=Cc1cccc(Cl)c1Cl)NC1CCC(CN2CCC(c3c[nH]c4ccccc34)CC2)CC1 (configuration not stated) | 680 nM and 1140 nM |
| O=C(NCCCCCN1CCC(c2c[nH]c3ccccc23)CC1)c1ccc(-c2ccccc2)nc1 | 1020 nM |
| CS(=O)(=O)NCCCNCc1cccc(-c2cccc(-c3nc4ccc(F)cc4[nH]3)c2)c1 | 940 nM |
| Cc1[nH]c(C)c(-c2ccc(Oc3ccc(C(F)(F)F)cc3)cc2)c(=O)c1Br | 210 nM |
| COc1ccc(F)cc1-c1ccc(C(=O)N2CCCN(c3ccc(C(F)(F)F)cn3)CC2)cc1 | 160 nM |
| Cc1cc(N2C(N)=NC(N)=NC2(C)C)ccc1Cl | 20 nM |
| O=C(C=Cc1ccc(C(=O)Nc2ccc(C3=NCCN3)cc2)cc1)Nc1ccc(C2=NCCN2)cc1 | 30 nM |
| CC(C)N1CCN(CCCNc2c3ccccc3nc3ccccc23)CC1 | 230 nM |

| SMILES | IC50 |
| --- | --- |
| CN1CCN(c2ccc(Nc3c(C(N)=O)cnc4cc(-c5ccoc5)ccc34)cc2C(F)(F)F)CC1 | 780 nM |
| COc1ccc(CCON2C(N)=NC(N)=NC2(C)C)cc1OC | 10 nM |
| Cc1ccc2nc(C)cc(NN=Cc3ccccc3[N+](=O)[O-])c2c1 | 170 nM |
| Cc1cc(NCCC(=O)Nc2ccccc2)nc(NCCc2ccc(F)cc2)n1 | 1130 nM |
| CC(=O)C1(c2ccccc2)CCN(CCC(NC(=O)c2cc(C(F)(F)F)cc(C(F)(F)F)c2)c2ccc(Cl)c(Cl)c2)CC1 (configuration not stated) | 1190 nM |
| Cc1ccccc1CNc1nccc(NCCC(=O)Nc2ccccc2)n1 | 890 nM |
| CS(=O)(=O)c1ccc(CNCc2ccc(-c3ccc(-c4nc5ccc(C(F)(F)F)cc5[nH]4)cc3)cc2)cc1 | 710 nM |
| CN1CC[C@@H](Oc2cc(NC(=O)Nc3ccccc3Br)ccc2Cl)C1 | 1100 nM |
| COc1ccc(Nc2nc(C)cc(NCc3ccc(-c4c(C)noc4C)cc3)n2)cc1 | 840 nM |
| CC(C)Cc1cnc2nc(N)nc(N)c2c1 | 490 nM |
| O=C(NC1CCC(CN2CCC(c3c[nH]c4ccccc34)CC2)CC1)c1csc(-c2ccc(C(F)(F)F)cc2Cl)n1 (configuration not stated) | 830 nM |
| COc1cc(C=CC(=O)N2CCN(Cc3cccc(C)c3)CC2)ccc1OCc1c(C)noc1C | 1030 nM |
| COc1cc2cc(Cc3cnc(N)nc3N)ccc2c(OC)c1OC | 240 nM |
| COCCn1c(Sc2ncnc3sccc23)nc2ccccc21 | 880 nM |
| COc1ccc(Nc2ncc(Cl)c(Nc3cccnc3C(N)=O)n2)cc1N1CCN(C)CC1 | 230 nM |
| CN(C)c1ccc(CN2CCCCC(NC(=O)c3cc(-c4ccccc4F)cs3)C2)cc1 (configuration not stated) | 830 nM |
| CCNc1cc(C(=O)N[C@@H](Cc2ccccc2)[C@H](O)CNCc2cccc(-n3ccnc3)c2)cc(N2CCCC2=O)c1 | 630 nM |
| CN1CCC(C(=O)N(Cc2ccc(-c3ccc(CNCCc4ccccc4)cn3)cc2)C2Cc3ccccc3C2)CC1 | 1060 nM |
| c1cc(CNC2CCN(CC3CCCCC3)CC2)cc(-n2ccnc2)c1 | 650 nM |
| O=C(Nc1ccc(C(F)(F)F)cc1)c1cccc(S(=O)(=O)NC2CCN(Cc3ccccc3)C2)c1 (configuration not stated) | 1050 nM |
| OC(CNCc1ccccc1OC(F)F)c1cccc(C(F)(F)F)c1 (configuration not stated) | 760 nM |
| C[C@H](NC(=O)C1CCCC1)C(=O)Nc1ccc(-c2ccc(-c3nc4ccc(C(F)(F)F)cc4[nH]3)cc2)cc1 | 270 nM |
| C=C[C@]1(C)C[C@@H](OC(=O)c2cncn(COC)c2=O)[C@]2(C)[C@H](C)CC[C@]3(CCC(=O)[C@H]32)[C@@H](C)[C@@H]1O | 880 nM |
| O=C(/C=C/c1ccc(C(F)(F)F)cc1)NCCCCCN1CCN(C(=O)Nc2ccc(Cl)c(Cl)c2)CC1 | 870 nM |
| CC(C)CCN1CCCN(Cc2ccc(C(=O)NCc3ccc(Cl)cc3)cc2)CC1 | 1010 nM |

| SMILES | IC50 |
| --- | --- |
| Clc1cccc(Cl)c1CCNCC1CCN(CC2CCCCC2)CC1 | 210 nM |
| CCc1cn2c3c(cc(C(=O)N[C@@H](Cc4ccccc4)[C@H](O)CNCc4ccccc4)cc13)N(C)S(=O)(=O)CC2 | 660 nM |
| Oc1cc2ccccc2cc1CNC1CCCCC1 | 590 nM |
| COc1ccc(C)c(Nc2ccnc(Nc3ccc(-c4cnc[nH]4)cc3)n2)c1 | 1370 nM |
| O=C(Nc1cccc(CN2CCCN(Cc3ccsc3)CC2)c1)c1ccc(Cl)c(Cl)c1 | 880 nM |
| CC(=O)Nc1ccc2[nH]cc(C3CCN(CCC4CCN(C(=O)/C=C/c5ccc(Cl)c(Cl)c5)CC4)CC3)c2n1 | 520 nM |
| NC(=O)C1CCN(Cc2ccc(-c3cccc(-c4nc5ccc(F)cc5[nH]4)c3)cc2)CC1 | 880 nM |
| O=S(=O)(c1ccc(Oc2ccccc2)cc1)N(CCC(O)(C(F)(F)F)C(F)(F)F)Cc1cccc(O)c1 | 490 nM |
| COc1cccc(CCc2cccc(CNC(C)=O)c2)c1 | 1040 nM |
| O=C(NCCCCCN1CCC(c2c[nH]c3ccccc23)CC1)Nc1cccc(I)c1 | 990 nM |
| O=C(CCn1c2ccccc2c2ccccc21)NN=Cc1ccco1 | 590 nM |
| CN1CC[C@@H](Oc2cc(C(=O)NCc3ccc(Cl)c(Cl)c3)ccc2C(F)(F)F)C1 | 1250 nM |
| COc1ccc2nccc(N3CCN(CCNCc4ccc5c(n4)NC(=O)CS5)CC3)c2c1 | 950 nM |
| CC(C)N(Cc1cnc(N)c(C#N)n1)c1ccc(Cl)c(Cl)c1 | 840 nM |
| CC(Cc1ccc(OCCCCOc2ccccc2)cc1)NCCCN1CCOCC1 (configuration not stated) | 720 nM |
| CCCCCCCCCN1CC[C@@H](CCCc2ccnc3ccc(O)cc23)[C@@H](CC)C1 | 290 nM |
| O=C(NCCCCCN1CCC(c2c[nH]c3ccccc23)CC1)Nc1ccc(I)cc1 | 990 nM |
| COc1ccc(CNCc2ccc(-c3ccc(-c4nc5ccc(C(F)(F)F)cc5[nH]4)s3)cc2)cc1 | 170 nM |
| CC(NCC(O)Cn1c2ccccc2c2ccccc21)c1ccccc1 (configuration not stated) | 930 nM |
| Cc1cc(C(=O)Nc2ccc3c(c2)CCN3C2CCN(Cc3ccc(F)cc3Cl)C2)no1 (configuration not stated) | 190 nM |
| CC(=O)c1ccc(NC(=O)Nc2ccc(N(C)c3ccnc(Nc4cccc(CS(C)(=O)=O)c4)n3)cc2)cc1 | 120 nM |
| CN1CCCC(CN2CCN(Cc3ccc(-c4cccc(-c5nc6ccc(F)cc6[nH]5)c4)cc3)CC2)C1 (configuration not stated) | 180 nM |
